Laboratory results as given in patent US8188139B2, “Heterocyclic-substituted phenyl methanones” (Hoffman-La Roche Inc., priority 2005, dated 2012).

target: T1, mGlyT-1b (Mus musculus, UniProt P28571); assay: Glycine uptake inhibition assay (mGlyT-1b); assay type: cell-based; details: inhibition of [3H]-glycine uptake in Flp-in-CHO cells transfected with mGlyT-1b cDNA; 20 min preincubation at 22° C.; read-out: IC50 (μM) at GlyT-1
T1 construct: host or cells: Flp-in-CHO
T1 sequence (P28571 1-651 isoform P28571-2): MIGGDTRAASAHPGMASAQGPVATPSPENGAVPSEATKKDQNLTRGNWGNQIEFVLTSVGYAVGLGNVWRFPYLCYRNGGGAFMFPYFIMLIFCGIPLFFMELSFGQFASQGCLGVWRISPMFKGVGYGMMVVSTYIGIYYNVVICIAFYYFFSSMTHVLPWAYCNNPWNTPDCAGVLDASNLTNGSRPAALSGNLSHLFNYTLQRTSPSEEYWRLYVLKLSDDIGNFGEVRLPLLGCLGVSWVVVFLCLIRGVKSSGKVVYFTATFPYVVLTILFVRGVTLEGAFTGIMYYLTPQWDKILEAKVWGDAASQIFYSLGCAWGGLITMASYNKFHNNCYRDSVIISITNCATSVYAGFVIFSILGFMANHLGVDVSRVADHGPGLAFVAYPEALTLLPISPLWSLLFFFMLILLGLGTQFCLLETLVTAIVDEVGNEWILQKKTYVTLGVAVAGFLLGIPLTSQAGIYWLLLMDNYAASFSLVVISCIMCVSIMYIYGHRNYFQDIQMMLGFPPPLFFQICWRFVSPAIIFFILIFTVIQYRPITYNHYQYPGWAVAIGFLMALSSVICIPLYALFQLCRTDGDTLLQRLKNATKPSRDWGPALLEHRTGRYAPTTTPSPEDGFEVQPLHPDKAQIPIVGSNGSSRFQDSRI
Method: DMEM complete medium: Nutrient mixture F-12 (Gibco Life-technologies), fetal bovine serum (FBS) 5%, (Gibco life technologies), Penicillin/Streptomycin1% (Gibco life technologies), Hygromycin 0.6 mg/ml (Gibco life technologies), Glutamine 1 mM Gibco life technologies)
Uptake buffer (UB): 150 mM NaCl, 10 mM Hepes-Tris, pH 7.4, 1 mM CaCl2, 2.5 mM KCl, 2.5 mM MgSO4, 10 mM (+) D-glucose.
Flp-in™-CHO (Invitrogen Cat n^o R758-07) cells stably transfected with mGlyT1b cDNA.
Glycine Uptake Inhibition Assay (mGlyT-1b)
On day 1 mammalian cells, (Flp-in™-CHO), transfected with mGlyT-1b cDNA, were plated at the density of 40,000 cells/well in complete F-12 medium, without hygromycin in 96-well culture plates. On day 2, the medium was aspirated, and the cells were washed twice with uptake buffer (UB). The cells were then incubated for 20 min at 22° C. with either (i) no potential competitor, (ii) 10 mM non-radioactive glycine, (iii) a concentration of a potential inhibitor. A range of concentrations of the potential inhibitor was used to generate data for calculating the concentration of inhibitor resulting in 50% of the effect (e.g. IC50, the concentration of the competitor inhibiting glycine uptake of 50%). A solution was then immediately added containing [^3H]-glycine 60 nM (11-16 Ci/mmol) and 25 μM non-radioactive glycine. The plates were incubated with gentle shaking, and the reaction was stopped by aspiration of the mixture and washing (three times) with ice-cold UB. The cells were lysed with scintillation liquid, shaken 3 hours, and the radioactivity in the cells was counted using a scintillation counter.

**Q.** How did the IC50 turn out when `CCSc1ccc2c(c1)CN(C(=O)c1cc(S(C)(=O)=O)ccc1O[C@@H](C)C(F)(F)F)C2` [Example 32, (5-Ethylsulfanyl-1,3-dihydro-isoindol-2-yl)-[5-methanesulfonyl-2-((S)-2,2,2-trifluoro-1-methyl-ethoxy)-phenyl]-methanone] was run?
**A.** Its IC50 is 0.037 µM.

**Q.** `CC(C)COc1ccc(S(C)(=O)=O)cc1C(=O)N1Cc2ccc(C(F)(F)F)cc2C1` [Example 35, (2-Isobutoxy-5-methanesulfonyl-phenyl)-(5-trifluoromethyl-1,3-dihydro-isoindol-2-yl)-methanone] was tested. Which IC50 did it give?
**A.** Its IC50 is 0.028 µM.

**Q.** With `CNS(=O)(=O)c1ccc(OC(C)C)c(C(=O)N2Cc3ccc(C(F)(F)F)cc3C2)c1` [Example 43, 4-Isopropoxy-N-methyl-3-(5-trifluoromethyl-1,3-dihydro-isoindole-2-carbonyl)-benzenesulfonamide] as the molecule, how does the IC50 read?
**A.** Its IC50 is 0.034 µM.

**Q.** With `Cc1cc2c(cc1Cl)CN(C(=O)c1cc(S(C)(=O)=O)ccc1O[C@H](C)C(F)(F)F)C2` [Example 49, (5-Chloro-6-methyl-1,3-dihydro-isoindol-2-yl)-[5-methanesulfonyl-2-((R)-2,2,2-trifluoro-1-methyl-ethoxy)-phenyl]-methanone] as the molecule, how does the IC50 read?
**A.** Its IC50 is 0.034 µM.

**Q.** `Cc1cc2c(cc1Cl)CN(C(=O)c1cc(S(C)(=O)=O)ccc1OCC(C)C)C2` [Example 56, (5-Chloro-6-methyl-1,3-dihydro-isoindol-2-yl)-(2-isobutoxy-5-methanesulfonyl-phenyl)-methanone] was tested. Which IC50 did it give?
**A.** Its IC50 is 0.016 µM.

**Q.** `CCSc1cc2c(cc1Cl)CN(C(=O)c1cc(S(C)(=O)=O)ccc1O[C@H](C)C(F)(F)F)C2` [Example 59, (5-Chloro-6-ethylsulfanyl-1,3-dihydro-isoindol-2-yl)-[5-methanesulfonyl-2-((R)-2,2,2-trifluoro-1-methyl-ethoxy)-phenyl]-methanone] was tested. Which IC50 did it give?
**A.** Its IC50 is 0.036 µM.

**Q.** For `COc1cc2c(cc1Cl)CN(C(=O)c1cc(S(C)(=O)=O)ccc1SC(C)C)C2` [Example 71, (5-Chloro-6-methoxy-1,3-dihydro-isoindol-2-yl)-(2-isopropylsulfanyl-5-methanesulfonyl-phenyl)-methanone], which IC50 is on record?
**A.** Its IC50 is 0.049 µM.

**Q.** How did the IC50 turn out when `COc1ccc2c(c1)CN(C(=O)c1cc(S(C)(=O)=O)ccc1OC(C)C)C2` [Example 74, (2-Isopropoxy-5-methanesulfonyl-phenyl)-(5-methoxy-1,3-dihydro-isoindol-2-yl)-methanone] was run?
**A.** Its IC50 is 0.031 µM.

**Q.** With `Cc1cc2c(cc1C(F)(F)F)CN(C(=O)c1cc(S(C)(=O)=O)ccc1O[C@@H](C)C(F)(F)F)C2` [Example 99, [5-Methanesulfonyl-2-((S)-2,2,2-trifluoro-1-methyl-ethoxy)-phenyl]-(5-methyl-6-trifluoromethyl-1,3-dihydro-isoindol-2-yl)-methanone] as the molecule, how does the IC50 read?
**A.** The IC50 was 0.042 µM.

**Q.** For `COc1cc2c(cc1C(F)(F)F)CN(C(=O)c1cc(S(C)(=O)=O)ccc1O[C@@H](C)C(F)(F)F)C2` [Example 100], which IC50 is on record?
**A.** The IC50 was 0.045 µM.

**Q.** Which IC50 does the source give for `C[C@H](Oc1ccc(S(C)(=O)=O)cc1C(=O)N1Cc2ccc(OC(F)(F)F)cc2C1)C(F)(F)F` [Example 103, [5-Methanesulfonyl-2-((S)-2,2,2-trifluoro-1-methyl-ethoxy)-phenyl]-(5-trifluoro-methoxy-1,3-dihydro-isoindol-2-yl)-methanone] here?
**A.** The IC50 was 0.046 µM.

**Q.** Which IC50 does the source give for `CS(=O)(=O)c1ccc(OCC2CCC2)c(C(=O)N2Cc3cnc(C(F)(F)F)cc3C2)c1` [Example 118, (2-Cyclobutyl-methoxy-5-methane-sulfonyl-phenyl)-(6-trifluoromethyl-1,3-dihydro-pyrrolo [3,4-c]pyridin-2-yl)-methanone] here?
**A.** Its IC50 is 0.038 µM.

**Q.** How did the IC50 turn out when `CS(=O)(=O)c1ccc(-c2ccc(F)cc2)c(C(=O)N2Cc3cnc(C(F)(F)F)cc3C2)c1` [Example 121, (4′-Fluoro-4-methanesulfonyl-biphenyl-2-yl)-(6-trifluoromethyl-1,3-dihydro-pyrrolo[3,4-c]pyridin-2-yl)-methanone] was run?
**A.** Its IC50 is 0.047 µM.

**Q.** How did the IC50 turn out when `CS(=O)(=O)c1ccc(OCC2CCC2)c(C(=O)N2Cc3cc(C(F)(F)F)cnc3C2)c1` [Example 124, (2-Cyclobutyl-methoxy-5-methane-sulfonyl-phenyl)-(3-trifluoromethyl-5,7-dihydro-pyrrolo[3,4-b]pyridin-6-yl)-methanone] was run?
**A.** The IC50 was 0.03 µM.

**Q.** Which IC50 does the source give for `CC(C)COc1ccc(S(C)(=O)=O)cc1C(=O)N1Cc2cc(C(F)(F)F)cnc2C1` [Example 125, (2-Isobutoxy-5-methanesulfonyl-phenyl)-(3-trifluoromethyl-5,7-dihydro-pyrrolo[3,4-b]pyridin-6-yl)-methanone] here?
**A.** The IC50 was 0.03 µM.

**Q.** Which IC50 does the source give for `C[C@@H](Oc1ccc(S(C)(=O)=O)cc1C(=O)N1Cc2cc(C(F)(F)F)cnc2C1)C(F)(F)F` [Example 139, [5-Methanesulfonyl-2-((R)-2,2,2-trifluoro-1-methyl-ethoxy)-phenyl]-(3-trifluoro-methyl-5,7-dihydro-pyrrolo[3,4-b]pyridin-6-yl)-methanone] here?
**A.** Its IC50 is 0.014 µM.

**Q.** Which IC50 does the source give for `CS(=O)(=O)c1ccc(-c2ccc(F)cc2)c(C(=O)N2Cc3cc(C(F)(F)F)cnc3C2)c1` [Example 140, (4′-Fluoro-4-methanesulfonyl-biphenyl-2-yl)-(3-trifluoromethyl-5,7-dihydro-pyrrolo[3,4-b]pyridin-6-yl)-methanone] here?
**A.** The IC50 was 0.036 µM.

**Q.** With `CS(=O)(=O)c1ccc(-c2ccc(F)c(F)c2)c(C(=O)N2Cc3cnc(C(F)(F)F)cc3C2)c1` [Example 146, (3′,4′-Difluoro-4-methanesulfonyl-biphenyl-2-yl)-(6-trifluoromethyl-1,3-dihydro-pyrrolo[3,4-c]pyridin-2-yl)-methanone] as the molecule, how does the IC50 read?
**A.** The IC50 was 0.047 µM.

**Q.** `CS(=O)(=O)c1ccc(-c2ccc(F)c(F)c2)c(C(=O)N2Cc3cc(C(F)(F)F)cnc3C2)c1` [Example 148, (3′,4′-Difluoro-4-methanesulfonyl-biphenyl-2-yl)-(3-trifluoromethyl-5,7-dihydro-pyrrolo[3,4-b]pyridin-6-yl)-methanone] was tested. Which IC50 did it give?
**A.** Its IC50 is 0.032 µM.

**Q.** With `CS(=O)(=O)c1ccc(OCC(F)(F)C(F)(F)F)c(C(=O)N2Cc3cnc(C(F)(F)F)cc3C2)c1` [Example 155, [5-Methanesulfonyl-2-(2,2,3,3,3-pentafluoro-propoxy)-phenyl]-(6-trifluoromethyl-1,3-dihydro-pyrrolo[3,4-c]pyridin-2-yl)-methanone] as the molecule, how does the IC50 read?
**A.** Its IC50 is 0.044 µM.

**Q.** Which IC50 does the source give for `CS(=O)(=O)c1ccc(OCC(F)(F)C(F)F)c(C(=O)N2Cc3cnc(C(F)(F)F)cc3C2)c1` [Example 156, [5-Methanesulfonyl-2-(2,2,3,3-tetrafluoro-propoxy)-phenyl]-(6-trifluoromethyl-1,3-dihydro-pyrrolo[3,4-c]pyridin-2-yl)-methanone] here?
**A.** The IC50 was 0.047 µM.

**Q.** For `CS(=O)(=O)c1ccc(OCC(F)(F)C(F)(F)F)c(C(=O)N2Cc3cc(C(F)(F)F)cnc3C2)c1` [Example 157, [5-Methanesulfonyl-2-(2,2,3,3,3-pentafluoro-propoxy)-phenyl]-(3-trifluoromethyl-5,7-dihydro-pyrrolo[3,4-b]pyridin-6-yl)-methanone], which IC50 is on record?
**A.** Its IC50 is 0.025 µM.

**Q.** Which IC50 does the source give for `CS(=O)(=O)c1ccc(OCC(F)(F)C(F)F)c(C(=O)N2Cc3cc(C(F)(F)F)cnc3C2)c1` [Example 158, [5-Methanesulfonyl-2-(2,2,3,3-tetrafluoro-propoxy)-phenyl]-(3-trifluoromethyl-5,7-dihydro-pyrrolo[3,4-b]pyridin-6-yl)-methanone] here?
**A.** Its IC50 is 0.024 µM.

**Q.** Which IC50 does the source give for `Cc1nc2c(cc1C(F)(F)F)CN(C(=O)c1cc(S(C)(=O)=O)ccc1O[C@@H](C)C(F)(F)F)C2` [Example 163, [5-Methanesulfonyl-2-((S)-2,2,2-trifluoro-1-methyl-ethoxy)-phenyl]-(2-methyl-3-trifluoromethyl-5,7-dihydro-pyrrolo[3,4-b]pyridin-6-yl)-methanone] here?
**A.** Its IC50 is 0.045 µM.

**Q.** Which IC50 does the source give for `Cc1csc(-c2ccc3c(c2)CN(C(=O)c2cc(S(C)(=O)=O)ccc2O[C@@H](C)C(F)(F)F)C3)n1` [Example 168, [5-Methanesulfonyl-2-((S)-2,2,2-trifluoro-1-methyl-ethoxy)-phenyl]-[5-(4-methyl-thiazol-2-yl)-1,3-dihydro-isoindol-2-yl]-methanone] here?
**A.** Its IC50 is 0.033 µM.
